From patent US20260176320A1, “MODULATORS OF G-PROTEIN COUPLED RECEPTORS” (priority 2018, published 2026)
Read-outs that look alike come from different tables or passages of the source.

Experiments:
[1] = biological target: GLP-1R (Homo sapiens, UniProt P43220); experiment: HitHunter cAMP assay (GLP-1R); format: cell-based; details: cAMP; for Emax: read-out: (Emax) GLP-1R
Description: (§1) Suspension cells were harvested and resuspended in 1×HBSS (+10 mM HEPES, 625 μM IBMX, 0.2% BSA) according to the following procedure: 5 μL of 2× cell suspension+1× antibody were added to each well, where the optimal cell density was 10,000 cells per well in a low volume 384-well plate. Agonist serial dilutions in a separate 384 well dilution plate in a 22-point series of 2× dilutions of agonist in DMSO were performed as follows. 80 μL of the highest concentration of Agonist/DMSO was added to well No. 1. 40 μL was removed from well No. 1 and added it to well No. 2, followed by gentle mixing. […] This process was repeated until well No. 22. Additional serial dilutions for additional agonists were set up in a similar manner. 50 nL of each 2× agonist serial dilution was added in duplicate to the designated agonist rows of the assay plate using the Labcyte ECHO. Assay plate was incubated for 30 minutes at room temperature. Following agonist incubation, 5 μL of cAMP Antibody Reagent was added to all wells. […] Plates were spun down briefly. Assay plate was incubated for 1 hour at room temperature in the dark for the immunocompetition reaction to occur. […] Plates were spun down briefly. Assay plate was incubated O/N at room temperature in the dark. Samples were read on Tecan i-control plate reader using luminescence mode with 300 ms integration time. Data analysis was performed using GraphPad Prism.

[2] = biological target: T1, GIP-R (Homo sapiens, UniProt P48546); experiment: HitHunter cAMP assay (GIP-R); format: cell-based; details: Table 3A; cAMP; read-out: (Emax) GIP-R
T1 sequence (P48546 22-466): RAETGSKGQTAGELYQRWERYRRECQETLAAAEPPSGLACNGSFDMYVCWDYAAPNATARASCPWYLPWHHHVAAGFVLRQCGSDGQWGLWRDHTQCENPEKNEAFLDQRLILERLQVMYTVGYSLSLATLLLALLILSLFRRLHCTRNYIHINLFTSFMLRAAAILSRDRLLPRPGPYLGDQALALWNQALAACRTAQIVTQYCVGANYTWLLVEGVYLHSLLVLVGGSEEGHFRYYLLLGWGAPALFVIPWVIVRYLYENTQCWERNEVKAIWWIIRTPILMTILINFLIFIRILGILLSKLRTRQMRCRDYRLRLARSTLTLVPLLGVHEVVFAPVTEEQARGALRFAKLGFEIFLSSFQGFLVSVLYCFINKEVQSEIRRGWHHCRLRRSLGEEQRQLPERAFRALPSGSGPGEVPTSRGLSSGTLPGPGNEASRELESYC
Description: as §1

[3] = Table 3A, read-out: EC50 GLP-1R/nM

Sequence of GLP-1R (P43220 24-463): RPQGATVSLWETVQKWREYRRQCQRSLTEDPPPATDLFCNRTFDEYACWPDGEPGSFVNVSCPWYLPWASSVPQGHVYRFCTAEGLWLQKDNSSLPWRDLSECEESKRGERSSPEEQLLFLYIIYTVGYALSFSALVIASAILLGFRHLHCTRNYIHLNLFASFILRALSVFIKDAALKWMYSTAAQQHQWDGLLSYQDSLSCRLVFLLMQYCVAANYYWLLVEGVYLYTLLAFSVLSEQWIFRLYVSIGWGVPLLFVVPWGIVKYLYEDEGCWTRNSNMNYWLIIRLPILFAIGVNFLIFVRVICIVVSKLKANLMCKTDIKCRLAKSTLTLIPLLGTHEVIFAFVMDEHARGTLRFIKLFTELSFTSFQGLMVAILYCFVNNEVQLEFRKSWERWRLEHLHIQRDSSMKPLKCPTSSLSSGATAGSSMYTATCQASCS

How did the EC50 ([1]; EC50 GLP-1R/nM, Table 3) turn out when `CCCCCCCCCCCCCCCC(=O)N[C@@H](CCC(=O)NCCCC[C@H](NC(=O)[C@H](CO)NC(=O)[C@@H]1CCCN1C(=O)[C@@H]1CCCN1C(=O)[C@@H]1CCCN1C(=O)[C@H](C)NC(=O)CNC(=O)[C@H](CO)NC(=O)[C@H](CO)NC(=O)[C@@H]1CCCN1C(=O)CNC(=O)CNC(=O)[C@H](C)NC(=O)[C@H](CC(C)C)NC(=O)[C@H](CC(C)C)NC(=O)[C@H](Cc1c[nH]c2ccccc12)NC(=O)[C@H](CC(N)=O)NC(=O)[C@@H](NC(=O)[C@H](Cc1ccccc1)NC(=O)[C@H](CCC(=O)O)NC(=O)C(C)(C)NC(=O)[C@H](C)NC(=O)[C@H](C)NC(=O)[C@H](CCC(N)=O)NC(=O)[C@H](CCCCN)NC(=O)[C@H](CC(=O)O)NC(=O)[C@H](CC(C)C)NC(=O)[C@H](Cc1ccc(O)cc1)NC(=O)[C@@H](NC(=O)[C@H](CO)NC(=O)[C@H](Cc1ccc(O)cc1)NC(=O)[C@H](CC(=O)O)NC(=O)[C@H](CO)NC(=O)[C@@H](NC(=O)[C@H](Cc1ccccc1)NC(=O)[C@@H](NC(=O)CNC(=O)[C@H](CCC(=O)O)NC(=O)CSCC(=O)NCCN1C(=O)CC(C)(C(C)C)C1=O)[C@@H](C)O)[C@@H](C)O)[C@@H](C)CC)C(C)C)C(N)=O)C(=O)O` (mixture of isomers) [Compound 101] was run?
The EC50 was 10 to 100 nM.

What about the EC50 ([1]; EC50 GLP-1R/nM, Table 3A) of the same compound?
Its EC50 is 10 to 100 nM.

What about the Emax ([1]; Table 3) of the same compound?
Its Emax is 92%.

What about the Emax ([1]; Table 3A) of the same compound?
Its Emax is 92%.

How did the Emax [2] turn out when `CCCCCCCCCCCCCCCC(=O)N[C@@H](CCC(=O)NCCCC[C@H](NC(=O)[C@H](CO)NC(=O)[C@@H]1CCCN1C(=O)[C@@H]1CCCN1C(=O)[C@@H]1CCCN1C(=O)[C@H](C)NC(=O)CNC(=O)[C@H](CO)NC(=O)[C@H](CO)NC(=O)[C@@H]1CCCN1C(=O)CNC(=O)CNC(=O)[C@H](C)NC(=O)[C@H](CC(C)C)NC(=O)[C@H](CC(C)C)NC(=O)[C@H](Cc1c[nH]c2ccccc12)NC(=O)[C@H](CC(N)=O)NC(=O)[C@@H](NC(=O)[C@H](Cc1ccccc1)NC(=O)[C@H](CCC(=O)O)NC(=O)C(C)(C)NC(=O)[C@H](C)NC(=O)[C@H](C)NC(=O)[C@H](CCC(N)=O)NC(=O)[C@H](CCCCN)NC(=O)[C@H](CC(=O)O)NC(=O)[C@H](CC(C)C)NC(=O)[C@H](Cc1ccc(O)cc1)NC(=O)[C@@H](NC(=O)[C@H](CO)NC(=O)[C@H](Cc1ccc(O)cc1)NC(=O)[C@H](CC(=O)O)NC(=O)[C@H](CO)NC(=O)[C@@H](NC(=O)[C@H](Cc1ccccc1)NC(=O)[C@@H](NC(=O)CNC(=O)[C@H](CCC(=O)O)NC(=O)CSCC(=O)NCCN1CC[C@@H](O)CC1=O)[C@@H](C)O)[C@@H](C)O)[C@@H](C)CC)C(C)C)C(N)=O)C(=O)O` (single isomer, unassigned) [Compound 203] was run?
Its Emax is 44%.

Which Emax [2] does the source give for `CCCCCCCCCCCCCCCC(=O)N[C@@H](CCC(=O)NCCCC[C@H](NC(=O)[C@H](CO)NC(=O)[C@@H]1CCCN1C(=O)[C@@H]1CCCN1C(=O)[C@@H]1CCCN1C(=O)[C@H](C)NC(=O)CNC(=O)[C@H](CO)NC(=O)[C@H](CO)NC(=O)[C@@H]1CCCN1C(=O)CNC(=O)CNC(=O)[C@H](C)NC(=O)[C@H](CC(C)C)NC(=O)[C@H](CC(C)C)NC(=O)[C@H](Cc1c[nH]c2ccccc12)NC(=O)[C@H](CC(N)=O)NC(=O)[C@@H](NC(=O)[C@H](Cc1ccccc1)NC(=O)[C@H](CCC(=O)O)NC(=O)C(C)(C)NC(=O)[C@H](C)NC(=O)[C@H](C)NC(=O)[C@H](CCC(N)=O)NC(=O)[C@H](CCCCN)NC(=O)[C@H](CC(=O)O)NC(=O)[C@H](CC(C)C)NC(=O)[C@H](Cc1ccc(O)cc1)NC(=O)[C@@H](NC(=O)[C@H](CO)NC(=O)[C@H](Cc1ccc(O)cc1)NC(=O)[C@H](CC(=O)O)NC(=O)[C@H](CO)NC(=O)[C@@H](NC(=O)[C@H](Cc1ccccc1)NC(=O)[C@@H](NC(=O)CNC(=O)[C@H](CCC(=O)O)NC(=O)CSCC(=O)NCCN1CCC[C@H](C)C1=O)[C@@H](C)O)[C@@H](C)O)[C@@H](C)CC)C(C)C)C(N)=O)C(=O)O` (single isomer, unassigned) [Compound 207] here?
The Emax was 68%.

With `CCCCCCCCCCCCCCCC(=O)N[C@@H](CCC(=O)NCCCC[C@H](NC(=O)[C@H](CO)NC(=O)[C@@H]1CCCN1C(=O)[C@@H]1CCCN1C(=O)[C@@H]1CCCN1C(=O)[C@H](C)NC(=O)CNC(=O)[C@H](CO)NC(=O)[C@H](CO)NC(=O)[C@@H]1CCCN1C(=O)CNC(=O)CNC(=O)[C@H](C)NC(=O)[C@H](CC(C)C)NC(=O)[C@H](CC(C)C)NC(=O)[C@H](Cc1c[nH]c2ccccc12)NC(=O)[C@H](CC(N)=O)NC(=O)[C@@H](NC(=O)[C@H](Cc1ccccc1)NC(=O)[C@H](CCC(=O)O)NC(=O)C(C)(C)NC(=O)[C@H](C)NC(=O)[C@H](C)NC(=O)[C@H](CCC(N)=O)NC(=O)[C@H](CCCCN)NC(=O)[C@H](CC(=O)O)NC(=O)[C@H](CC(C)C)NC(=O)[C@H](Cc1ccc(O)cc1)NC(=O)[C@@H](NC(=O)[C@H](CO)NC(=O)[C@H](Cc1ccc(O)cc1)NC(=O)[C@H](CC(=O)O)NC(=O)[C@H](CO)NC(=O)[C@@H](NC(=O)[C@H](Cc1ccccc1)NC(=O)[C@@H](NC(=O)CNC(=O)[C@H](CCC(=O)O)NC(=O)CSCC(=O)NCCN1CCC[C@@H](C)C1=O)[C@@H](C)O)[C@@H](C)O)[C@@H](C)CC)C(C)C)C(N)=O)C(=O)O` (single isomer, unassigned) [Compound 208] as the compound, how does the Emax [2] read?
The Emax was 59%.

For `CCCCCCCCCCCCCCCC(=O)N[C@@H](CCC(=O)NCCCC[C@H](NC(=O)[C@H](CO)NC(=O)[C@@H]1CCCN1C(=O)[C@@H]1CCCN1C(=O)[C@@H]1CCCN1C(=O)[C@H](C)NC(=O)CNC(=O)[C@H](CO)NC(=O)[C@H](CO)NC(=O)[C@@H]1CCCN1C(=O)CNC(=O)CNC(=O)[C@H](C)NC(=O)[C@H](CC(C)C)NC(=O)[C@H](CC(C)C)NC(=O)[C@H](Cc1c[nH]c2ccccc12)NC(=O)[C@H](CC(N)=O)NC(=O)[C@@H](NC(=O)[C@H](Cc1ccccc1)NC(=O)[C@H](CCC(=O)O)NC(=O)C(C)(C)NC(=O)[C@H](C)NC(=O)[C@H](C)NC(=O)[C@H](CCC(N)=O)NC(=O)[C@H](CCCCN)NC(=O)[C@H](CC(=O)O)NC(=O)[C@H](CC(C)C)NC(=O)[C@H](Cc1ccc(O)cc1)NC(=O)[C@@H](NC(=O)[C@H](CO)NC(=O)[C@H](Cc1ccc(O)cc1)NC(=O)[C@H](CC(=O)O)NC(=O)[C@H](CO)NC(=O)[C@@H](NC(=O)[C@H](Cc1ccccc1)NC(=O)[C@@H](NC(=O)CNC(=O)[C@H](CCC(=O)O)NC(=O)C(=O)NCCN1CCCCC1=O)[C@@H](C)O)[C@@H](C)O)[C@@H](C)CC)C(C)C)C(N)=O)C(=O)O` [Compound 215], which Emax ([1]; Table 3A) is on record?
The Emax was 103%.

And the EC50 [1, 3]?
Its EC50 is 1 to 10 nM.

How did the Emax ([1]; Table 3A) turn out when `CCCCCCCCCCCCCCCC(=O)N[C@@H](CCC(=O)NCCCC[C@H](NC(=O)[C@H](CO)NC(=O)[C@@H]1CCCN1C(=O)[C@@H]1CCCN1C(=O)[C@@H]1CCCN1C(=O)[C@H](C)NC(=O)CNC(=O)[C@H](CO)NC(=O)[C@H](CO)NC(=O)[C@@H]1CCCN1C(=O)CNC(=O)CNC(=O)[C@H](C)NC(=O)[C@H](CC(C)C)NC(=O)[C@H](CC(C)C)NC(=O)[C@H](Cc1c[nH]c2ccccc12)NC(=O)[C@H](CC(N)=O)NC(=O)[C@@H](NC(=O)[C@H](Cc1ccccc1)NC(=O)[C@H](CCC(=O)O)NC(=O)C(C)(C)NC(=O)[C@H](C)NC(=O)[C@H](C)NC(=O)[C@H](CCC(N)=O)NC(=O)[C@H](CCCCN)NC(=O)[C@H](CC(=O)O)NC(=O)[C@H](CC(C)C)NC(=O)[C@H](Cc1ccc(O)cc1)NC(=O)[C@@H](NC(=O)[C@H](CO)NC(=O)[C@H](Cc1ccc(O)cc1)NC(=O)[C@H](CC(=O)O)NC(=O)[C@H](CO)NC(=O)[C@@H](NC(=O)[C@H](Cc1ccccc1)NC(=O)[C@@H](NC(=O)CNC(=O)[C@@H](CCc1nn[nH]n1)NC(=O)CSCC(=O)NCCN1CCCCC1=O)[C@@H](C)O)[C@@H](C)O)[C@@H](C)CC)C(C)C)C(N)=O)C(=O)O` [Compound 222] was run?
The Emax was 99%.

And the EC50 [1, 3]?
The EC50 was 1 to 10 nM.
